{
  "source": "patent US9012484B2",
  "about": "“Crystal and pharmaceutical preparation containing the same crystal” (Pola Pharma Inc., priority 2012, dated 2015)",
  "key": {"[1]": {"test": "State of dissolution in ethanol observed with the naked eye", "format": "physicochemical", "protocol": "The alcohol contents of crystals (Crystals 2, 3) obtained by changing the recrystallization condition of Example 1 were measured, and the state of dissolution in ethanol was also observed with the naked eye. Crystal 2 and Crystal 3 are the crystals of the present invention, wherein the dissolution state was satisfactory as well.\nThe alcohol content (content of alcohol used in recrystallization) of compositions obtained by changing the recrystallization condition of Example 1 was measured, and the state of dissolution in ethanol was also observed with the naked eye."}, "[2]": {"test": "Comparison of state of dissolution in ethanol between crystals", "format": "physicochemical", "settings": "rank order between crystals", "protocol": "The alcohol content of Crystal 4 obtained by changing the recrystallization condition of Example 1 was measured, and the state of dissolution in ethanol was also compared with those of Crystal of Comparative Example of Example 1 and Crystal 3 to compare the solubility.\nThe alcohol content of Crystal 5 obtained by changing the recrystallization condition of Example 1 was measured, and the state of dissolution in ethanol was also compared with those of Crystal of Comparative Example of Example 1 and Crystal 2 to compare the solubility.\nThe alcohol content of Crystal 6 obtained by changing the recrystallization condition of Example 1 was measured, and the state of dissolution in ethanol was also compared with those of Crystal of Comparative Example of Example 1, Crystal 4, and Crystal 3 to compare the solubility.\nThe alcohol content of Crystal 7 obtained by changing the recrystallization condition of Example 1 was measured, and the state of dissolution in ethanol was also compared with those of Crystal of Comparative Example of Example 1 and Crystal 5 to compare the solubility."}, "[3]": {"system": "Trichomonas vaginalis (clinically isolated strain)", "test": "Trichomonas vaginalis culture, cell count on hemocytometer", "format": "cell-based", "settings": "5.08 mg crystal in Trichomonas medium F, culture 4 days at 37° C., start 3.93×10^5 cells/mL", "protocol": "Effects of an active ingredient containing alcohol were examined by utilizing crystal 10. Crystal, which was obtained by performing recrystallization from a mixture solution of ethyl acetate and n-hexane and which contained no alcohol, was used as a comparative example (comparative crystal). Direct effects of luliconazole were investigated by utilizing Trichomonas vaginalis (clinically isolated strain). Samples were prepared such that 5.08 mg of comparative crystal was added in “Trichomonas medium F” (Fuji Pharma), 5.08 mg of crystal 10 was added in the medium, and 5 μL of water was added in the medium (control). […] of culture solution containing 3.93×10^5 cells/mL of Trichomonas vaginalis was added to each of the samples, followed by culturing for 4 days at 37° C. After that, cells of Trichomonas were counted on a hemocytometer. Between these three samples, significant difference was confirmed at a critical value of not more than 1%."}, "[4]": {"test": "Tablet hardness measurement (PTB311)", "format": "physicochemical", "settings": "tablet 50% lactose / 50% luliconazole, tableting pressure 1 ton/cm^2, 9 mmφ, average of 6 tablets", "protocol": "According to the formulation described in the following Table 6, tablet was prepared, and its hardness was measured. PTB311 (Pharma Test GmbH) was used as a measurement apparatus for hardness. Condition of tableting was performed at tableting pressure of 1 ton/cm^2 by utilizing 9 mmφ of a mortar and mallet. Comparative example was prepared by performing same procedures as described above by using comparative crystal. […] Accordingly, it is assumed that a tablet having high hardness can be obtained by utilizing the active ingredient containing alcohol since the active ingredient containing alcohol has strong affinity between the active ingredients."}, "[5]": {"test": "Elution test: time required for dissolution in anhydrous ethanol (50 rpm)", "format": "physicochemical", "settings": "1 g sample in 500 mL anhydrous ethanol, room temperature, stirring 50 rpm", "protocol": "(§1) An elution test (stirring condition: 50 rpm) was performed for Raw Material 1 (Crystal of Comparative Example) and Crystal 1 of Example 1 to investigate the elution dynamics. After confirming the dissolution of all crystals, the Z isomer and the SE isomer, which were isomers produced in the solution, were analyzed and quantitatively measured by means of HPLC. In the elution test, 500 mL of anhydrous ethanol was used as the solvent, wherein 1 g of the sample was dissolved at room temperature while stirring, and the time, which was required for the dissolution, was simultaneously measured. Accordingly, it is understood that the time, which is required for the dissolution, is short for Crystal 1, and thus the production of the Z isomer and the SE isomer as the isomers is suppressed in the dissolving step."}, "[6]": {"test": "HPLC measurement of Z and SE isomers produced in the solution after dissolution", "format": "physicochemical", "settings": "in ethanol solution after dissolution of all crystals", "protocol": "as §1, with “step. The condition for HPLC was as follows. Column: CHIRALCEL OD-RH 4.6×150 mm, column temperature: 35° C., mobile phase: mixture solution of methanol/2% aqueous solution of potassium hexafluorophosphate (85:15, v/v), flow rate: 0.6 mL/min., detection: 295 nm).” for “step.”"}},
  "note": "“Also recorded” adds a separate entry of the source.",
  "data": [
    {"smiles": "N#C/C(=C1/SC[C@@H](c2ccc(Cl)cc2Cl)S1)n1ccnc1", "note": "[Crystal 3, luliconazole]", "values": [
      {"measurement": "Solubility (state of dissolution in ethanol)", "setting": "[1]", "value": "satisfactory"},
      {"measurement": "Solubility order (state of dissolution in ethanol compared)", "setting": "[2]", "value": "Crystal of Comparative Example<<Crystal 4=Crystal 6<Crystal 3"}
    ]},
    {"smiles": "N#C/C(=C1/SC[C@@H](c2ccc(Cl)cc2Cl)S1)n1ccnc1", "note": "[Crystal 5, luliconazole]", "values": [
      {"measurement": "Solubility order (state of dissolution in ethanol compared)", "setting": "[2]", "value": "Crystal of Comparative Example<<Crystal 2=Crystal 5; also recorded: Crystal of Comparative Example<<Crystal 5=Crystal 7"}
    ]},
    {"smiles": "N#C/C(=C1/SC[C@@H](c2ccc(Cl)cc2Cl)S1)n1ccnc1", "note": "[Crystal 2, luliconazole]", "values": [
      {"measurement": "Solubility (state of dissolution in ethanol)", "setting": "[1]", "value": "satisfactory"},
      {"measurement": "Solubility order (state of dissolution in ethanol compared)", "setting": "[2]", "value": "Crystal of Comparative Example<<Crystal 2=Crystal 5"}
    ]},
    {"smiles": "N#C/C(=C1/SC[C@@H](c2ccc(Cl)cc2Cl)S1)n1ccnc1", "note": "[Crystal 10, luliconazole]", "values": [
      {"measurement": "Solubility (state of dissolution in ethanol)", "setting": "[1]", "value": "satisfactory"},
      {"measurement": "Cells of Trichomonas counted, Average", "setting": "[3]", "value": 256000},
      {"measurement": "Hardness", "setting": "[4]", "value": "73.7 ± 4.2", "unit": "N"}
    ]},
    {"smiles": "N#C/C(=C1/SC[C@@H](c2ccc(Cl)cc2Cl)S1)n1ccnc1", "note": "[Crystal 4, luliconazole]", "values": [
      {"measurement": "Solubility order (state of dissolution in ethanol compared)", "setting": "[2]", "value": "Crystal of Comparative Example<<Crystal 4=Crystal 6<Crystal 3"}
    ]},
    {"smiles": "N#C/C(=C1/SC[C@@H](c2ccc(Cl)cc2Cl)S1)n1ccnc1", "note": "[Crystal of Comp. Ex., luliconazole, reference compound]", "values": [
      {"measurement": "Time required until dissolution", "setting": "[5]", "value": 300, "unit": "min"},
      {"measurement": "Amount of generation of SE isomer", "setting": "[6]", "value": 0.09, "unit": "%"},
      {"measurement": "Amount of generation of Z isomer", "setting": "[6]", "value": 0.13, "unit": "%"},
      {"measurement": "Solubility order (state of dissolution in ethanol compared)", "setting": "[2]; listed as Comparative Example", "value": "Comparative Example<<Crystal 4<Crystal 3"},
      {"measurement": "Solubility order (state of dissolution in ethanol compared)", "setting": "[2]; listed as Crystal of Comparative Example", "value": "Crystal of Comparative Example<<Crystal 2=Crystal 5; also recorded: Crystal of Comparative Example<<Crystal 4=Crystal 6<Crystal 3; also recorded: Crystal of Comparative Example<<Crystal 5=Crystal 7"},
      {"measurement": "Cells of Trichomonas counted, Average", "setting": "[3]; listed as Comparative crystal", "value": 376000},
      {"measurement": "Hardness", "setting": "[4]; listed as Comparative crystal", "value": "29.1 ± 3.0", "unit": "N"}
    ]},
    {"smiles": "N#C/C(=C1/SC[C@@H](c2ccc(Cl)cc2Cl)S1)n1ccnc1", "note": "[Crystal 7, luliconazole]", "values": [
      {"measurement": "Solubility order (state of dissolution in ethanol compared)", "setting": "[2]", "value": "Crystal of Comparative Example<<Crystal 5=Crystal 7"}
    ]},
    {"smiles": "N#C/C(=C1/SC[C@@H](c2ccc(Cl)cc2Cl)S1)n1ccnc1", "note": "[Crystal 6, luliconazole]", "values": [
      {"measurement": "Solubility order (state of dissolution in ethanol compared)", "setting": "[2]", "value": "Crystal of Comparative Example<<Crystal 4=Crystal 6<Crystal 3"}
    ]},
    {"smiles": "N#C/C(=C1/SC[C@@H](c2ccc(Cl)cc2Cl)S1)n1ccnc1", "note": "[Crystal 1, luliconazole]", "values": [
      {"measurement": "Time required until dissolution", "setting": "[5]", "value": 200, "unit": "min"},
      {"measurement": "Amount of generation of SE isomer", "setting": "[6]", "value": 0.06, "unit": "%"},
      {"measurement": "Amount of generation of Z isomer", "setting": "[6]", "value": 0.06, "unit": "%"}
    ]}
  ]
}
